# Key:
# Assay type in all cases: in vivo, rat
# [1] = system: STZ induced diabetic rats; assay: Blood glucose in STZ induced diabetic rats (glucometer, tail vein); details: Glibenclamide 10 mg/kg p.o. daily, n=6
# Description: (§1) The garlic tablet at the said dosages was subjected to efficacy studies in diabetic animal models. For the efficacy studies on diabetes, studies were carried out using male Wistar albino rats (150-200 g). The animals were grouped and housed in polyacrylic cages with not more than six animals per cage and maintained under standard laboratory conditions (temperature 25°±2° C.) with dark and light cycle (12/12 h). The animals were fed with standard pellet diet supplied by Hindustan Lever Ltd., India and fresh water ad libitum. All the animals were acclimatized to laboratory condition for a week before commencement of experiment. […] were divided into five groups for further experiments.
# (§2) Rats were randomly allocated to five groups. Diabetes was induced by a single intraperitoneal injection of 120 mg/kg of Streptozotocin (STZ) in citrate buffer (0.1 M, pH 4.5). Group I consisted of normal healthy rats that were administered 1 ml/kg of 0.5% carboxy methylcellulose (CMC) solution orally. Group II consisted of diabetic rats used as control and were administered orally 1 ml/kg of 0.5% carboxy methylcellulose solution. Groups III consisted of diabetic rats treated daily with oral administration of 10 mg/kg of glibenclamide. Group IV consisted of diabetic rats treated orally with 500 mg of tablet suspended in 0.5% carboxy methylcellulose solution. Group V consisted of diabetic rats treated orally with 1000 mg of tablet suspended in 0.5% carboxy methylcellulose solution.
# (§3) All the test drugs were administered for 21 days. Blood glucose levels were estimated on the 1st, 3rd, 7th, 14th and 21st day by collecting tail vein using glucometer during drug treatment. On the 22nd day, the blood was collected for biochemical estimation by sinus puncture under anesthesia. The animals were sacrificed by cervical dislocation and organs were removed for histopathological studies.
# [2] = Body weight development in STZ diabetic rats; details: Glibenclamide 10 mg/kg p.o. (Group III), ± S.E, n=6
# Description: as §1
# as §2, with “Group V consisted of diabetic rats treated orally with 1000 mg of tablet suspended in 0.5% carboxy methylcellulose solution.” left out
# STZ diabetic rats [3] = assay: Serum total protein, creatinine and uric acid in STZ diabetic rats; details: Glibenclamide 10 mg/kg p.o. (Group III), 21 days, ± S.E, n=6
# Description: as §1, §2, §3
# STZ diabetic rats [4] = assay: Serum AST, ALT and ALP in STZ diabetic rats; details: Glibenclamide 10 mg/kg p.o. (Group III), 21 days, ± S.E, n=6
# Description: as §1, §2, §3
# STZ diabetic rats [5] = assay: Hemoglobin, glycosylated hemoglobin and plasma insulin in STZ diabetic rats; details: Glibenclamide 10 mg/kg p.o. (Group III), 21 days, ± S.E, n=6
# Description: as §1
# as §2, with “Group V consisted of diabetic rats treated orally with 1000 mg of tablet suspended in 0.5% carboxy methylcellulose solution.” left out
structure (smiles),measurement,setting,value
"COc1ccc(Cl)cc1C(=O)NCCc1ccc(S(=O)(=O)NC(=O)NC2CCCCC2)cc1 [Glibenclamide, glibenclamide]","Blood Sugar, 1 Day","[1]; day 1, mean",290.50 mg/dL
same,"Blood Sugar, 3 Day","[1]; day 3, mean",210.17 mg/dL
same,"Blood Sugar, 7 Day","[1]; day 7, mean",157.67 mg/dL
same,"Blood Sugar, 14 Day","[1]; day 14, mean",124.50 mg/dL
same,"Blood Sugar, 21 Day","[1]; day 21, mean",113.17 mg/dL
same,Body Weight Final,[2]; 21 days,161.13 ± 2.14^b* g
same,Body Weight Initial,[2],163.6 ± 1.42 g
same,Creatinine,STZ diabetic rats [3],1.04 ± 0.01^b** mg/dl
same,Protein,STZ diabetic rats [3],126.4 ± 2.84^b*** mg/dl
same,Uric acid,STZ diabetic rats [3],1.57 ± 0.06^b*** mg/dl
same,ALP,STZ diabetic rats [4],171.9 ± 4.07 ^b*** μmoles of phenol liberated/min/mg of protein
same,ALT,STZ diabetic rats [4],56.4 ± 1.54 ^b*** μmoles of pyruvate/h/mg/of protein
same,AST,STZ diabetic rats [4],161.0 ± 64.0 ^b*** μmoles of pyruvate/h/mg/of protein
same,HBA1C,STZ diabetic rats [5],0.17 ± 0.008^b*** % Hb
same,Plasma Insulin,STZ diabetic rats [5],16.4 ± 0.27^b*** μU/ml

# Source: patent US20140147528A1, “GARLIC FORMULATION AND A PROCESS FOR PREPARING THE SAME FOR TREATMENT OF DIABETES” (priority 2012, published 2014)
